Measurements as given in patent publication US6384061B1, “Hydantoin compounds and methods related thereto” (LG Chemical Ltd., priority 2000, dated 2002).

Tests used:
Ras farnesyl transferase = target: T1, Ras farnesyl transferase (Homo sapiens, UniProt P49354+P49356); experiment: Ras farnesyl transferase inhibiting activity (filter-binding, tritium-farnesylpyrophosphate, Ras-CVLS substrate); format: biochemical; settings: recombinant Ras farnesyl transferase, 30 minutes at 37° C., read-out: Ftase IC50
T1 construct: made in house
Procedure: The enzyme reaction was performed in 50 μl of 50 mM Sodium HEPES buffer solution containing 25 mmol of potassium chloride. 25 mmol of magnesium chloride, 10 mmol of DTT and 50 μmol of zinc chloride. 1.5 μmol of Ras substrate protein, 0.15 μmol of tritium-farnesylpyrophosphate and 4.5 nmol of farnesyl transferase were used.
More specifically, in the initial step, farnesyl transferase was added to the above buffer solution, reaction was maintained for 30 minutes at 37° C. and then the reaction was stopped by adding 1 ml of ethanol solution containing 1M HCl. The formed precipitates were adsorbed to GF/B filter using Hopper harvestor(Hopper #225V) for filter-binding, washed with ethanol, and then radioactivity of the dried filter was measured using LKB β counter. Enzyme titer was measured in the unsaturated state of substrate where the concentrations of Ras substrate protein and farnesyl transferase have quantitative relationship. Enzyme inhibiting activity was measured using less than 5% of total reaction solution of the compound according to the present invention dissolved in dimethylsulfoxide(DMSO) solution as a reagent. Enzyme inhibiting activity was represented by percentage of the amount of the farnesyl incorporated with the reagent to that without the reagent.

[1] = test system: intracellular Ras farnesyl transferase, Rat2 cell line; experiment: Intracellular Ras farnesyl transferase inhibiting activity in transformed Rat2 cells (35S-methionine labelling, Y13-259 immunoprecipitation, SDS-PAGE); format: cell-based; settings: Rattus norvegicus; transformed Rat2 fibroblast cell line; concentration inhibiting 50% of farnesyl binding of Ras protein; read-out: Ftase CIC50
Procedure: In the present experiment, Rat2 cell line which expresses C-Harvey-Ras protein having transforming activity and Rat2 cell line(Korean patent application No. 97-14409) which is transformed with fused protein of H-Ras substituted with polybasic lysine domain at C-terminus of K-Ras were used. The experiment was performed by the modified Declue's method(Declue. J. E. et al., Cancer Research, 1991. 51, 712). Hereinafter, the experimental method will be described in more detail.
3×10^5 cells of transformed Rat2 fibroblast cell line were sprayed on 60 mm cell cultivation dish and cultivated for 48 hours in a cell incubator at 37° C. and after 50% or more of density was reached, it was treated with a reagent. The compound according to the present invention dissolved in dimethylsulfoxide(DMSO) was used as the reagent. 1% of dimethylsulfoxide was used in both control and experimental groups. After 4 hours from the treatment of the reagent, methionine labeled with 150 μCi of radioactive isotope, ^35S per 1 ml of medium, was added and after cultivating for 20 hours, the cells were washed with physiological saline water. The cells were lysed using 1 ml of cool cell lysis buffer solution(50 mM of Sodium Herpiss buffer solution containing 5 mmol of magnesium chloride. 1 mmol of DTT, 1% NP 40, 1 mmol of EDTA, 1 mmol of PMSF, 2 μmol of leupeptin, 2 μmol of pepstatin A and 2 μmol of antipain) and the supernatant was obtained by high-velocity centrifugation of 12,000 g×5 minutes. The amount of the labeled radioisotope of the supernatent was measured and standardized to obtain a quantitative result in immunoprecipitation reaction and then. Y13-259, monoclonal antiboby specifically binding to Ras protein(Furth, M. E. et al., J. Virol, 1982, 43, 294) was added and reacted for 15 hours at 4° C. Protein A bound to goat anti-murine Immunoglobulin antibody-agarose suspension was added to the solution and reacted for 1 hour at 4° C. and then, to remove unspecific binding product, immunoprecipitates were washed with buffer solution(50 mM Tris chloride buffer solution containing 50 mmol of sodium chloride, 0.5% of sodium dioxycolate, 0.5% of NP 40 and 0.1% of SDS). The precipitates were boiled in reagent buffer solution for electrophoresis and then, electrophoresis was performed using 13.5% of SDS polyacrylamide gel. After electrophoresis, the gel was fixed and dried. Then, the gel was exposed to X-ray film, developed and printed. From the result of the experiment, intensities of band of protein with and without farnesyl of Ras protein were measured, and the concentration of reagent inhibiting 50% of farnesyl binding was defined as CIC50, an intracellular Ras farnesyl transferase inhibiting activity.

[2] = target: T2, Geranylgeranyl transferase (Bos taurus, UniProt P29702+Q5EAD5); experiment: Geranylgeranyl transferase inhibiting activity (geranylgeranyl pyrophosphate, Ras-CVIL substrate); format: biochemical; settings: geranylgeranyl transferase purified from bovine brain, read-out: GGtase IC50
T2 construct: Geranylgeranyl transferase was purified from bovine brain; from tissue; host or cells: bovine brain
Procedure: To evaluate the selective enzyme inhibiting activity of the compound according to the present invention, inhibiting activity on geranylgeranyl transferase was measured. Geranylgeranyl transferase was purified from bovine brain with the method modified from Schber's method(Schber et al., J. Biol. Chem. 1990, 265, 14701). and substantially the same experiment as that of farnesyl transferase was performed using geranylgeranyl pyrophosphate and Ras-CVIL substrate protein under the similar condition to farnesyl transferase reaction.

Row | IC50 (Ras farnesyl transferase) | IC50 [2] | Structure (SMILES) | IC50 [1]
1 | 190 µM | > 10 µM | COC(=O)C(CCSC)NC(=O)CN1C(=O)N(Cc2cnc[nH]2)C(=O)C1(C)c1cccc2ccccc12 (stereo not drawn) [Compound 5, 2-{2-[3-(3H-imidazol-4-yl-methyl)-5-methyl-5-naphthaten-1-yl-2,4-dioxo-imidazolidin-1-yl]-acetylamino}-4-methylsulfanyl-butyric acid methyl ester] | 10 µM
2 | 1.1 µM | > 10 µM | CC1(c2cccc3ccccc23)C(=O)N(CCCn2ccnc2)C(=O)N1Cc1ccc(S(C)(=O)=O)cc1 (stereo not drawn) [Compound 28, 3-(3-imidazol-1-yl-propyl)-1-(4-methylsulfonyl-benzyl)-5-methyl-5-naphthalen-1-yl-imidazolidin-2,4-dione] | < 20 µM
3 | 0.061 µM | > 10 µM | CSCCC(NC(=O)CN1C(=O)N(Cc2cnc[nH]2)C(=O)C1(C)c1cccc2ccccc12)C(=O)O (stereo not drawn) [Compound 6, 2-{2-[3-(3H-imidazol-4-yl-methyl)-5-methyl-5-naphthalen-1-yl-2,4-dioxo-imidazolidin-1-yl]-acetylamino}-4-methylsulfanyl-butyric acid] | 7.3 µM
4 | 0.092 µM | > 10 µM | CC1(c2cccc3ccccc23)C(=O)N(CCCn2ccnc2)C(=O)N1Cc1cccc(C#N)c1 (stereo not drawn) [Compound 32, 3-[3-(3-imidazol-1-yl-propyl)-5-methyl-5naphthalen-1-yl-2,4-dioxo-imidazolidin-1-ylmethyl]-benzonitrile] | < 20 µM
5 | 0.725 µM | > 10 µM | CC1(c2cccc3ccccc23)C(=O)N(CCCn2ccnc2)C(=O)N1Cc1ccc(S(C)(=O)=O)c(C#N)c1 (stereo not drawn) [Compound 30, 5-[3-(3-imidazol-1-yl-propyl)-5-methyl-5-naphthalen-1-yl-2,4-dioxo-imidazolidin-1-ylmethyl]-2-methylsulfonyl-benzonitrile] | < 20 µM
6 | 0.001 µM | > 10 µM | CSCCC(NC(=O)CN1C(=O)N(CCCn2ccnc2)C(=O)C1(C)c1cccc2ccccc12)C(=O)O (stereo not drawn) [Compound 14, 2-{2-[3-(3-imidazol-1-yl-propyl)-5-methyl-5-naphthalen-1-yl-2,4-dioxo-imidazolidin-1-yl]-acetylamino}-4-methylsulfanyl-butyric acid] | < 20 µM
7 | 0.9 µM | > 10 µM | CC1(c2cccc3ccccc23)C(=O)N(CCCn2ccnc2)C(=O)N1Cc1ccccc1C#N (stereo not drawn) [Compound 31, 2-[3-(3-imidazol-1-yl-propyl)-5-methyl-5-naphthalen-1-yl-2,4-dioxo-imidazolidin-1-ylmethyl]-benzonitrile] | < 20 µM
8 | 7 µM | > 10 µM | CC1(c2ccccc2)C(=O)N(CCCn2ccnc2)C(=O)N1Cc1cccc(C#N)c1 (stereo not drawn) [Compound 71, 3-[3-(3-imidazol-1-yl-propyl)-5-methyl-5-phenyl-2,4-dioxo-imidazolidin-1-ylmethyl]-benzonitrile] | < 20 µM
9 | 1 µM | > 10 µM | COCCN(C)C(=O)c1ccc(CN2C(=O)N(CCCn3ccnc3)C(=O)C2(C)c2cccc3ccccc23)cc1 (stereo not drawn) [Compound 42, 4[3-(3-imidazol-1-yl-propyl)-5-methyl-5-naphthalen-1-yl-2,4-dioxo-imidazolidin-1-ylmethyl]-N-(2-methoxy-ethyl)-N-methyl-benzamide] | < 20 µM
10 | 1.5 µM | > 10 µM | CC1(c2cccc3ccccc23)C(=O)N(CCCn2ccnc2)C(=O)N1Cc1c(F)c(F)c(F)c(F)c1F (stereo not drawn) [Compound 17, 1-(pentafluoro-benzyl)-3-(3-imidazol-1-yl-propyl)-5-methyl-5-naphthalen-1-yl-imidazolidin-2,4-dione] | < 20 µM
11 | 5 µM | > 10 µM | O=C(OCc1ccccc1)N1CCC(Cn2cncc2CN2C(=O)CN(Cc3cccc4ccccc34)C2=O)CC1 [Compound 76, 4-[5-(3-naphthalen-1-ylmethyl-2,5-dioxo-imidazolidin-1-ylmethyl)-imidazol-1-ylmethyl]-piperidine-1-carboxylic acid benzyl ester] | > 50 µM
12 | > 50 µM | > 10 µM | CC1(c2cccc3ccccc23)C(=O)N(CCCc2cnc[nH]2)C(=O)N1CC(=O)N1CCS(=O)(=O)C1 (stereo not drawn) [Compound 11] | < 20 µM
13 | 5.5 µM | > 10 µM | CSCCC1SCCN1C(=O)CN1C(=O)N(CCCc2cnc[nH]2)C(=O)C1(C)c1cccc2ccccc12 (stereo not drawn) [Compound 12, 3-[3-(3H-imidazol-4-yl)-propyl]-5-methyl-1-{2-[2-(2-methylsulfanyl-ethyl)-thiazolidin-3-yl]-2-oxo-ethyl}-5-naphthalen-1-yl-imidazolidin-2,4-dione] | < 20 µM
14 | 0.5 µM | > 10 µM | COC(=O)C(CCSC)NC(=O)CN1C(=O)N(CCCc2c[nH]cn2)C(=O)C1(C)c1cccc2ccccc12 (stereo not drawn) [Compound 1, 2-(2-{3-[3-(1H-imidazol-4-yl)-propyl]-5-methyl-5-naphthalen-1-yl-2,4-dioxo-imidazolidin-1-yl}-acetylamino)-4-methylsulfanyl-butyric acid methyl ester] | 1 µM
15 | 0.3 µM | > 10 µM | CC1(c2cccc3ccccc23)C(=O)N(CCCn2ccnc2)C(=O)N1Cc1cccc(Br)c1 (stereo not drawn) [Compound 20, 1-(3-bromo-benzyl)-3-(3-imidazol-1-yl-propyl)-5-methyl-5-naphthalen-1-yl-imidazolidin-2,4-dione] | < 20 µM
16 | 0.05 µM | > 10 µM | CCOC(=O)CN1C(=O)N(Cc2cncn2Cc2ccc(C#N)cc2)C(=O)C1(C)c1cccc2ccccc12 (stereo not drawn) [Compound 62, {3-[3-(4-cyano-benzyl)-3H-imidazol-4-ylmethyl]-5-methyl-5-naphthalen-1-yl-2,4-dioxo-imidazolidin-1-yl)-acetic acid ethyl ester] | < 20 µM
17 | 3 µM | > 10 µM | CC1(c2cccc3ccccc23)C(=O)N(CCCn2ccnc2)C(=O)N1Cc1cccc(OC(F)(F)F)c1 (stereo not drawn) [Compound 23, 1-(3-trifluoromethoxy-benzyl)-3-(3-imidazol-1-yl-propyl)-5-methyl-5-naphthalen-1-yl-imidazolidin-2,4-dione] | < 20 µM
18 | 0.18 µM | > 10 µM | COC(=O)C(CCSC)NC(=O)CN1C(=O)N(Cc2cncn2Cc2ccc(C#N)cc2)C(=O)C1(C)c1cccc2ccccc12 (stereo not drawn) [Compound 7, 2-(2-{3-[3-(4-cyano-benzyl)-imidazol-4-yl-methyl]-5-methyl-5-naphthalen-1-yl-2,4-dioxo-imidazolidin-1-yl}-acetylamino)-4-methylsulfanyl-butyric acid methyl ester] | < 20 µM
19 | 0.24 µM | > 10 µM | CC1(c2cccc3ccccc23)C(=O)N(CCCn2ccnc2)C(=O)N1Cc1cccc(Cl)c1 (stereo not drawn) [Compound 19, 1-(3-chloro-benzyl)-3-(3-imidazol-1-yl-propyl)-5-methyl-5-naphthalen-1-yl-imidazolidin-2,4-dione] | < 20 µM
